Tests used:
SHP2 = molecular target: T1, SHP2 (Homo sapiens, UniProt Q06124); experiment: Inhibition of human recombinant tyrosine phosphatase SHP2 (DiFMUP fluorescence); type: biochemical; details: for Inhibition of SHP2, percentage of inhibition of the control: 1 µM, control solvent only, SD did not exceed 6%
T1 construct: purchased Sigma-Aldrich
T1 sequence (Q06124 1-593): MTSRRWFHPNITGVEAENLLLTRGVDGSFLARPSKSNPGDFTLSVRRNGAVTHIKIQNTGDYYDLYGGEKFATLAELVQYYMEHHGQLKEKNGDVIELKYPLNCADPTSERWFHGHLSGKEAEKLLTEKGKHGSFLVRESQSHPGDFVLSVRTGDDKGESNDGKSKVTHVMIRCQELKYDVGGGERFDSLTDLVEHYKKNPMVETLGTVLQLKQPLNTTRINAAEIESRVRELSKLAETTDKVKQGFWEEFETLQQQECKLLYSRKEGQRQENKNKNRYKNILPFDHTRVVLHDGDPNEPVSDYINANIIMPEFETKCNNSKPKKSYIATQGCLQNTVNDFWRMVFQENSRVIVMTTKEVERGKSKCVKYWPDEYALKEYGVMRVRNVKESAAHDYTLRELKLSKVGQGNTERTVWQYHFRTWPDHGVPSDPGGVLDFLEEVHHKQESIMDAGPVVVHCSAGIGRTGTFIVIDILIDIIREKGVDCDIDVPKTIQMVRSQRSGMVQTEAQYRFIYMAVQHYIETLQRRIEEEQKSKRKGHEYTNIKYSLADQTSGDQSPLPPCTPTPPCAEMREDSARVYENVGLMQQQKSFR
Procedure, shortened: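 Human recombinant phosphatases (SHP1 400 ng/mL, SHP2 50 ng/mL, LAR 5 ng/mL final) were pre-incubated 10 min with compound in 25 mM MOPS pH 7.0, 50 mM NaCl, 1 mM DTT, 0.05% Tween-20. DiFMUP (0.1 mM final) was added for 20 min at 23 °C and fluorescence read at 355/560 nm. Screening used 1 µM compound (% inhibition vs vehicle); IC50 also reported.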

myocytes C2C12 = experiment: Scintillation proximity assay, transport of [14C]-deoxy-D-glucose into myocytes C2C12; type: cell-based, mouse; details: 50 µM; control solvent only
Description: The myocyte C2C12 cell line (ATCC CRL-1772), a subclone of myoblasts from mouse muscles, was cultured according to standard protocol in DMEM supplemented with 10% fetal calf serum, 100 IU/ml penicillin, and […] streptomycin at 37 °C in 5% CO2. Cells were pleated on a 96-well microplate and after reach confluence were differentiated in medium with 2% horse serum. Differentiation medium was changed every 72 h.
(§1) Scintillation proximity assay (SPA) is a method to measure the real-time accumulation of radiolabeled substrates by adherent cells with no filtration needed. Radioactivity concentrated closer to the scintillator embedded in the plastic bottom of each well provides a stronger signal than the radiolabeled substrate in the culture medium. Uptake of radiolabeled 2-deoxy-D-[U-14C]-glucose was conducted based on previous descriptions.
After 24 h incubation, the tested complexes were added. After 2 h incubation at 37 °C in 5% CO2, the medium was changed to low-glucose medium (1000 mg/L), and the tested complexes were added again, with further incubation for 4 h being conducted.
(§2) For cells proceeded as above, 2-deoxy-D-[U-14C]-glucose (250–350 mCi/mmol, NEC720A, PerkinElmer) solution in KRB with a total activity of 0.03 mCi was added to each well. […] Non-specific radioactivity was subtracted from each result (cpm). Two independent experiments with triplicates were conducted.

adipocytes 3T3-L1 = experiment: Scintillation proximity assay, transport of [14C]-deoxy-D-glucose into adipocytes 3T3-L1; type: cell-based, mouse; details: 50 µM
Description: Adipocytes 3T3-L1 cell line (ATCC CRL-11605) derived from fibroblasts from mouse embryo tissue were cultured according to standard protocol in DMEM medium supplemented with 10% bovine calf serum, 100 IU/mL penicillin, and […] streptomycin at 37 °C in 5% CO2. Cells were seeded in 96-well poly-D-lysine-coated plates and cultured to reach confluency.
as §1
Adipocytes were washed and the medium was changed to the basal medium. After 24 h incubation, the tested complexes were added. After 2 h incubation at 37 °C in 5% CO2, the medium was changed to DMEM medium without glucose, with 0.1% BSA free from fatty acid, […] L-glutamine, and […] pyruvate. The tested complexes were added again, and further incubation for 4 h was conducted.
as §2

hepatocytes HepG2 = experiment: Lipid accumulation in the cell model of NAFLD (oleic acid, AdipoRed); type: cell-based, human; details: 10 µM; 24 h
Description: The human hepatocyte HepG2 cell line (ATCC HB-8065) was cultured according to standard protocol in DMEM supplemented with 10% fetal bovine serum, 100 IU/mL penicillin, and […] streptomycin at 37 °C in 5% CO2. Cells were pleated on a 96-well microplate and were used at 18–24 h after seeding.
The induction of hepatic lipid accumulation and studies on the effect of vanadium complexes on this process were carried out based on previous descriptions. […] After 16–24 h, the standard medium was changed for DMEM with 0.1% BSA fatty acid free and 0.5 mM oleic acid as sodium salt and tested compounds were added. Cells were incubated for 24 h, and the intracellular lipid content was evaluated using AdipoRed Adipogenesis Assay Reagent (Lonza) according to the manufacturer’s protocol. Hepatocytes were washed with PBS with calcium and magnesium, and 5 µL AdipoRed Reagent in 200 µL PBS was added, with the mixture incubated for 10 min at 22 °C. Fluorescence signal proportional to lipid content in cells was measured at excitation in 530 nm and emission in 550 nm using a multimodal microplate reader POLARStar Omega (BMG Labtech). The results were normalized to the untreated control (cells with solvent only), wherein the intensity of fluorescence was taken as 100%.

Row | SMILES | IC50 (SHP2) | Inhibition of SHP2, percentage of inhibition of the control (SHP2) | Transport of [14C]-deoxy-D-glucose into C2C12 myocytes, % of the control (myocytes C2C12) | Transport of [14C]-deoxy-D-glucose into 3T3-L1 adipocytes, % of control (adipocytes 3T3-L1) | Lipid accumulation in hepatocytes after steatosis induction with oleic acid, % of control (hepatocytes HepG2)
1 | Cc1occc(=O)c1[O-].Cc1occc(=O)c1[O-].[O]=[V+2] [BMOV, bis(maltolato)oxidovanadium(IV), reference compound] | 8 nM | 82% | 125 % of control | low activity | did not have any significant effect
2 | O=S(=O)([O-])[O-].[O]=[V+2] [VOSO4, reference compound] | 13 nM | 77% | 110 % of control | low activity | did not have any significant effect
